Reference: patent publication US10722520B2, “Heterocyclic compounds and their use in preventing or treating bacterial infections” (MUTABILIS, priority 2016, dated 2020)
pIC50: −log10 of the molar value.

Assays:
OXA-15 = OXA-15 (Pseudomonas aeruginosa, UniProt Q51574); assay: biochemical
E. coli RGN238 [1] = assay: microbe, parasite or virus in culture; type: cell-based; details: Escherichia coli, RGN238, read-out: MIC compounds of the invention alone
Description: Log phase bacterial suspensions were adjusted to a final density of 5×10^5 cfu/mL in cation-adjusted Mueller-Hinton broth (Becton-Dickinson) and added to each well (98 μL). Microplates were incubated for 16-20 h at 35° C. in ambient air. The MIC of the compounds was defined as the lowest concentration of said compounds that prevented bacterial growth as read by visual inspection.

E. coli UFR32 = assay: MIC of ceftazidime (CAZ) at fixed concentration of compound (synergy), broth microdilution; type: cell-based; details: MIC of ceftazidime with compound fixed at 4 μg/mL; strain UFR32 (E. coli)
Method in brief: (§1)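 Step one, log-phase suspension set to 5×10^5 cfu/mL final in CA-MHB. Step two, incubation at 35° C under ambient air for 16-20 h. Step three, visual reading of the lowest growth-free concentration as MIC.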

E. coli RGN238 [2] = assay: as above; type: cell-based; details: MIC of ceftazidime with compound fixed at 4 μg/mL; strain RGN238 (E. coli)
Method in brief: as §1

E. coli UFR39 = assay: as above; type: cell-based; details: MIC of ceftazidime with compound fixed at 4 μg/mL; strain UFR39 (E. coli)
Method in brief: as §1

K. pneumoniae BAA-1898 = assay: as above; type: cell-based; details: MIC of ceftazidime with compound fixed at 4 μg/mL; strain BAA-1898 (K. pneumoniae)
Method in brief: as §1

E. coli UFR18 = assay: as above; type: cell-based; details: MIC of ceftazidime with compound fixed at 4 μg/mL; strain UFR18 (E. coli)
Method in brief: as §1

E. coli UFR74 = assay: as above; type: cell-based; details: MIC of ceftazidime with compound fixed at 4 μg/mL; strain UFR74 (E. coli)
Method in brief: as §1

P. aeruginosa CIP107051 = assay: as above; type: cell-based; details: MIC of ceftazidime with compound fixed at 4 μg/mL; strain CIP107051 (P. aeruginosa)
Method in brief: as §1

K. pneumoniae UFR68 = assay: as above; type: cell-based; details: MIC of ceftazidime with compound fixed at 4 μg/mL; strain UFR68 (K. pneumoniae)
Method in brief: as §1

E. cloacae P99 = assay: as above; type: cell-based; details: MIC of ceftazidime with compound fixed at 4 μg/mL; strain P99 (E. cloacae)
Method in brief: as §1

K. oxytoca UFR21 = assay: as above; type: cell-based; details: MIC of ceftazidime with compound fixed at 4 μg/mL; strain UFR21 (K. oxytoca)
Method in brief: as §1

E. coli UFR61O = assay: as above; type: cell-based; details: MIC of ceftazidime with compound fixed at 4 μg/mL; strain UFR61O (E. coli)
Method in brief: as §1

K. pneumoniae UFR77 = assay: as above; type: cell-based; details: MIC of ceftazidime with compound fixed at 4 μg/mL; strain UFR77 (K. pneumoniae)
Method in brief: as §1

K. pneumoniae 160143 = assay: as above; type: cell-based; details: MIC of ceftazidime with compound fixed at 4 μg/mL; strain 160143 (K. pneumoniae)
Method in brief: as §1

E. cloacae 260508 = assay: as above; type: cell-based; details: MIC of ceftazidime with compound fixed at 4 μg/mL; strain 260508 (E. cloacae)
Method in brief: as §1

K. pneumoniae 200047 = assay: as above; type: cell-based; details: MIC of ceftazidime with compound fixed at 4 μg/mL; strain 200047 (K. pneumoniae)
Method in brief: as §1

E. coli UFR41 = assay: as above; type: cell-based; details: MIC of ceftazidime with compound fixed at 4 μg/mL; strain UFR41 (E. coli)
Method in brief: as §1

E. coli 190317 = assay: as above; type: cell-based; details: MIC of ceftazidime with compound fixed at 4 μg/mL; strain 190317 (E. coli)
Method in brief: as §1

E. cloacae UFR51 = assay: as above; type: cell-based; details: MIC of ceftazidime with compound fixed at 4 μg/mL; strain UFR51 (E. cloacae)
Method in brief: as §1

K. pneumoniae UFR24 = assay: as above; type: cell-based; details: MIC of ceftazidime with compound fixed at 4 μg/mL; strain UFR24 (K. pneumoniae)
Method in brief: as §1

E. cloacae UFR70 = assay: as above; type: cell-based; details: MIC of ceftazidime with compound fixed at 4 μg/mL; strain UFR70 (E. cloacae)
Method in brief: as §1

E. coli 131119 = assay: as above; type: cell-based; details: MIC of ceftazidime with compound fixed at 4 μg/mL; strain 131119 (E. coli)
Method in brief: as §1

K. pneumoniae 6299 = assay: as above; type: cell-based; details: MIC of ceftazidime with compound fixed at 4 μg/mL; strain 6299 (K. pneumoniae)
Method in brief: as §1

E. cloacae UFR85 = assay: as above; type: cell-based; details: MIC of ceftazidime with compound fixed at 4 μg/mL; strain UFR85 (E. cloacae)
Method in brief: as §1

TEM-1 = TEM-1 (Escherichia coli, UniProt P62593)
CTX-M-15 = CTX-M-15 (Escherichia coli, UniProt Q9EXV5)
OXA-48 = OXA-48 (Klebsiella pneumoniae, UniProt Q6XEC0)
KPC-2 = KPC-2 (Klebsiella pneumoniae, UniProt Q9F663)
Chain of KPC-2 (Q9F663 25-293, looked up, species assumed): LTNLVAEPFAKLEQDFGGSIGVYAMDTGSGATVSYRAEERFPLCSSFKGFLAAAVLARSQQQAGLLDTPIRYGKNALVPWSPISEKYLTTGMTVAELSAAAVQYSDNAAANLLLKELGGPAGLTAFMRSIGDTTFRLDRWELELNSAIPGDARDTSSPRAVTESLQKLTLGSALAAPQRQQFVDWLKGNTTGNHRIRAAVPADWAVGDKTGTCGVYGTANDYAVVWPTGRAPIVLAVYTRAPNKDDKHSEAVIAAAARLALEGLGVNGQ

Chain of CTX-M-15 (Q9EXV5 29-291, species assumed): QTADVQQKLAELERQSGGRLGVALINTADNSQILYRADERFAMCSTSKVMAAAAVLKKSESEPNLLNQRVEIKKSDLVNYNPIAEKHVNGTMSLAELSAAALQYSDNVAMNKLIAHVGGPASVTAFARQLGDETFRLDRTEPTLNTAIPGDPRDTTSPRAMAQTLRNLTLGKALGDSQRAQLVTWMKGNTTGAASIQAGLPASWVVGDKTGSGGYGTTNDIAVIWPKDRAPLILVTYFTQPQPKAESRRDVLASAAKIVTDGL
Chain of OXA-48 (Q6XEC0 23-265, looked up, species assumed): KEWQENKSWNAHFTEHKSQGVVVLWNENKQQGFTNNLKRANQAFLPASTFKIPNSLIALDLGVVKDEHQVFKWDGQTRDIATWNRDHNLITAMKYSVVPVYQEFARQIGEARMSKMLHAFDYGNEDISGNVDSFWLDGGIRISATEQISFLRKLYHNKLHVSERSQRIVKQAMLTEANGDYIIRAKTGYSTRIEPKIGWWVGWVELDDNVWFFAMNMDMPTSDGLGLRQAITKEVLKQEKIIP
Chain of TEM-1 (P62593 24-286 limits assumed): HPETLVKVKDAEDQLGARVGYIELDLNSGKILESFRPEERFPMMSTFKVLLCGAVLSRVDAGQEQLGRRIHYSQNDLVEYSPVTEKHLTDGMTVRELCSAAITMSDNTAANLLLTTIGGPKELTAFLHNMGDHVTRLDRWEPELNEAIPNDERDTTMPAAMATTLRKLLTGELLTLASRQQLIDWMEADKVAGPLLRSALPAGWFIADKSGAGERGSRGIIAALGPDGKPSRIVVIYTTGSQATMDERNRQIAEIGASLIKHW
Chain of OXA-15 (Q51574 22-275): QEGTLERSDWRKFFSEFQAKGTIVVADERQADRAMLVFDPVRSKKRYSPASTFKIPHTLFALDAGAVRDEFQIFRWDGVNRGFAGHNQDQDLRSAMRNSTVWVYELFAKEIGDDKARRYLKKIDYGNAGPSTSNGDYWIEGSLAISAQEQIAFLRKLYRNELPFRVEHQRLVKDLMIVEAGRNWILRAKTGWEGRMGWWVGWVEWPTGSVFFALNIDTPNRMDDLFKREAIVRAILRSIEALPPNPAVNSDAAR

Compound	pIC50 (OXA-15)	MIC (E. coli RGN238 [1])	MIC combination of CAZ and compounds of the invention at 4 μg/mL (E. coli UFR32)	MIC combination of CAZ and compounds of the invention at 4 μg/mL (E. coli RGN238 [2])	MIC combination of CAZ and compounds of the invention at 4 μg/mL (E. coli UFR39)	MIC combination of CAZ and compounds of the invention at 4 μg/mL (K. pneumoniae BAA-1898)	MIC combination of CAZ and compounds of the invention at 4 μg/mL (E. coli UFR18)	MIC combination of CAZ and compounds of the invention at 4 μg/mL (E. coli UFR74)	MIC combination of CAZ and compounds of the invention at 4 μg/mL (P. aeruginosa CIP107051)	MIC combination of CAZ and compounds of the invention at 4 μg/mL (K. pneumoniae UFR68)	MIC combination of CAZ and compounds of the invention at 4 μg/mL (E. cloacae P99)	MIC combination of CAZ and compounds of the invention at 4 μg/mL (K. oxytoca UFR21)	MIC combination of CAZ and compounds of the invention at 4 μg/mL (E. coli UFR61O)	MIC combination of CAZ and compounds of the invention at 4 μg/mL (K. pneumoniae UFR77)	MIC combination of CAZ and compounds of the invention at 4 μg/mL (K. pneumoniae 160143)	MIC combination of CAZ and compounds of the invention at 4 μg/mL (E. cloacae 260508)	MIC combination of CAZ and compounds of the invention at 4 μg/mL (K. pneumoniae 200047)	MIC combination of CAZ and compounds of the invention at 4 μg/mL (E. coli UFR41)	MIC combination of CAZ and compounds of the invention at 4 μg/mL (E. coli 190317)	MIC combination of CAZ and compounds of the invention at 4 μg/mL (E. cloacae UFR51)	further results
O=C1N2CC(n3nccn3)=CC(C2)N1OS(=O)(=O)O (stereo not shown) [Example 3, sodium [7-oxo-3-(triazol-2-yl)-1,6-diazabicyclo[3.2.1]oct-3-en-6-yl]sulfate]	6.72	2 µg/mL	<0.25	<0.25	>128	0.5	<0.25	<0.25	4	0.5	≤0.25	0.5	≤0.25	<0.25	<0.25	<0.25	<0.25	>128	<0.25	<0.25	MIC combination of CAZ and compounds of the invention at 4 μg/mL (K. pneumoniae UFR24): ≤0.25; MIC combination of CAZ and compounds of the invention at 4 μg/mL (E. cloacae UFR70): <0.25; MIC combination of CAZ and compounds of the invention at 4 μg/mL (E. coli 131119): <0.25; MIC combination of CAZ and compounds of the invention at 4 μg/mL (K. pneumoniae 6299): <0.25; MIC combination of CAZ and compounds of the invention at 4 μg/mL (E. cloacae UFR85): <0.25; pIC50 (TEM-1): 9.14; pIC50 (CTX-M-15): 8.68; pIC50 (OXA-48): 8.80; pIC50 (KPC-2): 7.92
O=C1N2CC(n3ccnn3)=C[C@H](C2)N1OS(=O)(=O)O [Example 6, sodium [(5R)-7-oxo-3-(triazol-1-yl)-1,6-diazabicyclo[3.2.1]oct-3-en-6-yl]sulfate]	7.68	1 µg/mL	<0.25	<0.25	<0.25	<0.25	<0.25	<0.25	4	<0.25	<0.25	<0.25	<0.25	<0.25	<0.25	<0.25	<0.25	<0.25	<0.25	<0.25	MIC combination of CAZ and compounds of the invention at 4 μg/mL (K. pneumoniae UFR24): <0.25; MIC combination of CAZ and compounds of the invention at 4 μg/mL (E. cloacae UFR70): <0.25; MIC combination of CAZ and compounds of the invention at 4 μg/mL (E. coli 131119): <0.25; MIC combination of CAZ and compounds of the invention at 4 μg/mL (K. pneumoniae 6299): <0.25; MIC combination of CAZ and compounds of the invention at 4 μg/mL (E. cloacae UFR85): <0.25; pIC50 (TEM-1): 9.44; pIC50 (CTX-M-15): 9.24; pIC50 (OXA-48): 9.42; pIC50 (KPC-2): 8.68
